From the RepoRT retention time repository (doi:10.1016/j.chroma.2019.01.023)

How the values were obtained:
Details in all cases: stereoisomer not certain
[1] = HILIC, Merck SeQuant ZIC-pHILIC, 150 × 2.1 mm, 5 µm, 40 °C, 0.3 mL/min, estimated dead time 1.1 min; A: acetonitrile; B: water + 2.8 mM ammonium formate, pH 9; gradient (min/%B) 0/5 1/5 10/51 13/51 13.1/5 20/5
[2] = RP, Phenomenex Kinetex C18, 150 × 2.1 mm, 1.7 µm, 30 °C, 0.3 mL/min, estimated dead time 1.1 min; A: water + 0.1% formic acid, pH 3; B: acetonitrile + 0.1% formic acid, pH 3; gradient (min/%B) 0/2 14/100 17/100 17.1/2 25/2
[3] = as above; remark: listed apart in the source
[4] = HILIC, Waters ACQUITY UPLC BEH Amide, 150 × 2.1 mm, 1.7 µm, 40 °C, 0.5 mL/min, estimated dead time 0.66 min; A: 5% water + 95% acetonitrile; B: 70% water + 30% acetonitrile + 10 mM ammonium formate, pH 6.5; gradient (min/%B) 0/0 2/0 20/70 23/70 24/0 31/0

LC retention time [1]	LC retention time [2]	LC retention time [3]	LC retention time [4]	SMILES
6.03 min	3.4 min	3.49 min	3.31 min	CC(C)(CO)C(O)C(=O)NCCC(=O)O (stereo not given) [PANTOTHENATE]
2.16 min	2.27 min	4.04 min	1.36 min	Cn1c(=O)[nH]c2ncn(C)c2c1=O [PARAXANTHINE]
7.04 min	3.13 min	3.18 min	7.87 min	NC(Cc1ccccc1)C(=O)O (stereo not given) [PHENYLALANINE]
3.69 min	1.65 min	1.81 min	3.29 min	Cc1ncc(CO)c(CO)c1O [PYRIDOXINE]
5.9 min	4.65 min	4.85 min	6.01 min	Cc1cc2nc3c(=O)[nH]c(=O)nc-3n(CC(O)C(O)C(O)CO)c2cc1C (stereo not given) [RIBOFLAVIN]
1.46 min	5.26 min	5.42 min	0.81 min	NC(=O)c1ccccc1O [SALICYLAMIDE]
2.41 min	6.91 min	7 min	1.12 min	O=C(O)CCCCCCCCC(=O)O [SEBACATE]
1.98 min	3.88 min	4.07 min	1.36 min	Cn1c(=O)c2[nH]cnc2n(C)c1=O [THEOPHYLLINE]
2.09 min	4.4 min	4.64 min	1.08 min	CSc1ncnc2nc[nH]c12 [THIOPURINE S-METHYLETHER]
3.56 min	3.21 min	3.34 min	1.97 min	Cc1cn(C2CC(O)C(CO)O2)c(=O)[nH]c1=O (stereo not given) [THYMIDINE]
2.68 min	2.42 min	2.54 min	1.6 min	Cc1c[nH]c(=O)[nH]c1=O [THYMINE]
8.2 min	2 min	2.11 min	9 min	NC(Cc1ccc(O)cc1)C(=O)O (stereo not given) [TYROSINE]
6.2 min	1.88 min	2.06 min	3.65 min	O=c1ccn(C2OC(CO)C(O)C2O)c(=O)[nH]1 (stereo not given) [URIDINE]
6.53 min	1.82 min	2.05 min	4.97 min	O=c1[nH]c(=O)c2[nH]cnc2[nH]1 [XANTHINE]
7.99 min	3.01 min	3.11 min	7.17 min	O=c1[nH]c(=O)c2ncn(C3OC(CO)C(O)C3O)c2[nH]1 (stereo not given) [XANTHOSINE]
